This passage reports inhibition activity and melting point results from patent publication US11970453B1, “2-ethoxy-8-(4-fluorobenzylidene)-4-(4-fluorophenyl)-5,6,7,8-tetrahydroquinoline-3-carbonitrile as an antimicrobial compound” (KING FAISAL UNIVERSITY, priority 2023, dated 2024).

One data set relates to Candida albicans. Briefly: Antimicrobial screening, agar dilution method. The format is cell-based. The note with it: after 10, 20, 40 and 60 minutes at all dilutions 1:100, 1:200, 1:400, 1:800. The method, then:
(§1) The antibacterial properties of the synthesized compound 2-ethoxy-8-(4-fluorobenzylidene)-4-(4-fluorophenyl)-5,6,7,8-tetrahydroquinoline-3-carbonitrile were studied by the method of agar dilution. Test solutions of each compound was prepared in concentration of 1% using dimethylformamide as a solvent then they are diluted in physiological solution to obtain the final experimental dilutions 1:100, 1:200, 1:400, 1:800. The effects of these substances are compared with furacillin in a controllable study. The testing microbes used were gram positive bacteria Staphylococcus aureus, gram negative bacteria Pseudomonas aeruginosa and Escherichia coli and Candida albicans fungus. The experiments used for this survey were meat-pentonlu agar (EPA) for cultivation of bacteria and Saburo environment for the fungus. Each experiment used 1 mL of test solution on each plate […]. Two drops of emulsified with microbes feel were added. All experimental samples were taken from the agar after 10, 20, 40, 60 minutes in the environment on the basis of Patrk planted. The bacteria were cultivated at a temperature of 37° C. for 1 day and the mushroom was kept in a thermostat for […] at a temperature of 28° C. Then results were checked.
Background: Agar dilution tests growth on a series of plates holding different concentrations.

The next data set has as its system Escherichia coli. Briefly: Antimicrobial screening, agar dilution method. The note with it: after 10, 20, 40 and 60 minutes at all dilutions 1:100, 1:200, 1:400, 1:800. The format is cell-based. As to the method: as §1
The subject of a further data set is Pseudomonas aeruginosa. Briefly: Antimicrobial screening, agar dilution method. It counts as cell-based. The note with it: after 10, 20, 40 and 60 minutes at all dilutions 1:100, 1:200, 1:400, 1:800. As to the method: as §1
The subject of a further data set is Staphylococcus aureus. Briefly: Antimicrobial screening, agar dilution method. The format is cell-based. The note with it: after 10, 20, 40 and 60 minutes at all dilutions 1:100, 1:200, 1:400, 1:800. The method, then:
as §1

Structures are written as SMILES.

In general, melting point refers to the temperature of the solid-liquid transition. For `CCOc1nc2c(c(-c3ccc(F)cc3)c1C#N)CCC/C2=C\c1ccc(F)cc1` [2-ethoxy-8-(4-fluorobenzylidene)-4-(4-fluorophenyl)-5,6,7,8-tetrahydroquinoline-3-carbonitrile], the melting point lay within 151 to 153 °C. Further, the inhibition activity result in the data set with Candida albicans is recorded as “highest inhibition activity”. Also, the inhibition activity result with Escherichia coli is listed as “highest inhibition activity”. The inhibition activity result in the data set with Pseudomonas aeruginosa was “highest inhibition activity”. For the same molecule, the inhibition activity result in the data set with Staphylococcus aureus was “highest inhibition activity”.
